Holding throughout (test): Antibacterial activity, microbroth dilution method (MIC)
(In general: In broth dilution the organism is exposed to a series of concentrations in liquid medium.)

Assay [1] relates to control Gram-negative E. coli 25922 strain. It counts as cell-based, Escherichia coli. Particulars: Escherichia coli. The source says: (§1) The antibacterial activity from a microbroth dilution method may be presented as the minimum inhibitory concentration (MIC in μg/mL). The MIC value is the lowest concentration of drug which prevents macroscopically visible growth under test conditions.
(§2) Antibacterial activity of test compounds against the super sensitive Gram-negative Escherichia coli (E. coli) BAS849 bacterium, the control Gram-negative E. coli 25922 strain and the Gram-positive Staphylococcus aureus (S. aureus) 29213 bacterium are shown in Table 1.

For assay [2], the system named is Gram-positive Staphylococcus aureus (S. aureus) 29213. The assay is classed as cell-based. Particulars: Staphylococcus aureus, Gram-positive S. aureus 29213.
From the text: as §1, §2

Assay [3] relates to super sensitive Gram-negative Escherichia coli (E. coli) BAS849. The assay is classed as cell-based. Particulars: Escherichia coli, read-out: MIC, E. coli BAS849.
From the text: as §1, §2

The mark [4] stands for this setting: super sensitive Gram-negative E. coli BAS849, microbroth dilution.

In brackets after ≈: the same amount, converted by molar mass. Counter-ions that a name gives are not always drawn. Like-named read-outs stand apart in the source and are kept apart here. Where only a bound is given, the exact number is not on record here.

One may read the MIC as the lowest concentration that inhibits growth of the organism. As for `CCNc1ccc2c(c1)CCCCc1c-2[nH]c(=O)c(C(=O)O)c1O` [Cpd 129, 10-(ethylamino)-4-hydroxy-2-oxo-1,2,5,6,7,8-hexahydrobenzo[7,8]cycloocta[1,2-b]pyridine-3-carboxylic acid], the figures for the MIC in assay [1], in assay [2] and in assay [3] (setting [4]) were 12.5 to 150 mg/L (≈ 38.1 to 457 µM), 3.5 to 12.5 mg/L (≈ 10.7 to 38.1 µM) and 1 to 3.5 mg/L (≈ 3.05 to 10.7 µM), respectively.
Regarding `CNCc1cc2cc3c(cc2n1C)NCCCc1c-3[nH]c(=O)c(C(=O)O)c1O.Cl` [Cpd 103, 4-hydroxy-10-methyl-11-((methylamino)methyl)-2-oxo-2,5,6,7,8,10-hexahydro-1H-pyrido[2′,3′:4,5]azocino[3,2-f]indole-3-carboxylic acid hydrochloride], the MIC was 12.5 to 150 mg/L in assay [1], 12.5 to 150 mg/L in assay [2] and 1 to 3.5 mg/L in assay [3] (setting [4]).
Consider `Cl.Cn1c(CNC(C)(C)C)cc2cc3c(cc21)OCCc1c-3[nH]c(=O)c(C(=O)O)c1O` [Cpd 175, 10-((tert-butylamino)methyl)-4-hydroxy-9-methyl-2-oxo-2,5,6,9-tetrahydro-1H-pyrido[2′,3′:4,5]oxepino[3,2-f]indole-3-carboxylic acid hydrochloride], for which the figures for the MIC in assay [1], in assay [2] and in assay [3] (setting [4]) were less than 1 mg/L, 3.5 to 12.5 mg/L and less than 1 mg/L, respectively.
In the case of `CCNCc1cc2cc3c(cc2n1C)CCCc1c-3[nH]c(=O)c(C(=O)O)c1O.Cl` [Cpd 25, 10-((ethylamino)methyl)-4-hydroxy-9-methyl-2-oxo-1,2,5,6,7,9-hexahydropyrido[3′,2′:6,7]cyclohepta[1,2-f]indole-3-carboxylic acid hydrochloride], the MIC in assay [1] was less than 1 mg/L; in assay [2] it was 3.5 to 12.5 mg/L; in assay [3] (setting [4]), less than 1 mg/L.
As to `Cl.Cn1c(CNC2CCC2)cc2cc3c(cc21)CCCc1c-3[nH]c(=O)c(C(=O)O)c1O` [Cpd 23, 10-((cyclobutylamino)methyl)-4-hydroxy-9-methyl-2-oxo-1,2,5,6,7,9-hexahydropyrido[3′,2′:6,7]cyclohepta[1,2-f]indole-3-carboxylic acid hydrochloride], the MIC in assay [1] was less than 1 mg/L; in assay [2], 3.5 to 12.5 mg/L; in assay [3] (setting [4]), less than 1 mg/L.
`CC1Oc2cc(Cl)ccc2-c2c1cc(C(=O)O)c(=O)n2Cc1ccccc1` (stereo not drawn) [Cpd 72, 1-benzyl-8-chloro-5-methyl-2-oxo-2,5-dihydro-1H-chromeno[4,3-b]pyridine-3-carboxylic acid]: the MIC lay within 12.5 to 150 mg/L (≈ 32.7 to 393 µM) in assay [1], 3.5 to 12.5 mg/L (≈ 9.17 to 32.7 µM) in assay [2] and 3.5 to 12.5 mg/L (≈ 9.17 to 32.7 µM) in assay [3] (setting [4]).
Take `Cl.O=C(O)c1c(O)c2c([nH]c1=O)-c1ccc(NC3CCNCC3)cc1CCC2` [Cpd 118, 4-hydroxy-2-oxo-9-(piperidin-4-ylamino)-2,5,6,7-tetrahydro-1H-benzo[6,7]cyclohepta[1,2-b]pyridine-3-carboxylic acid hydrochloride]: the minimum inhibitory concentration (MIC) in assay [1], in assay [2] and in assay [3] (setting [4]) was 12.5 to 150 mg/L each time.
In the case of `CN(C)CCNCc1cc2cc3c(cc2n1C)OCCc1c-3[nH]c(=O)c(C(=O)O)c1O.Cl.Cl` [Cpd 182, 10-(((2-(dimethylamino)ethyl)amino)methyl)-4-hydroxy-9-methyl-2-oxo-2,5,6,9-tetrahydro-1H-pyrido[2′,3′:4,5]oxepino[3,2-f]indole-3-carboxylic acid dihydrochloride], the MIC in assay [1] was 12.5 to 150 mg/L; in assay [2], 12.5 to 150 mg/L; in assay [3] (setting [4]), 1 to 3.5 mg/L.
Consider `Cl.O=C(O)c1c(O)c2c([nH]c1=O)-c1ccc(N3CCCNCC3)cc1CCC2` [Cpd 111, 9-(1,4-diazepan-1-yl)-4-hydroxy-2-oxo-2,5,6,7-tetrahydro-1H-benzo[6,7]cyclohepta[1,2-b]pyridine-3-carboxylic acid hydrochloride], for which the MIC in assay [1] lay within 12.5 to 150 mg/L; in assay [2] it was 12.5 to 150 mg/L; in assay [3] (setting [4]), 1 to 3.5 mg/L.
Take `CN(C)Cc1cc2cc3c(cc2n1C)OCCc1c-3[nH]c(=O)c(C(=O)O)c1O.Cl` [Cpd 173, 10-((dimethylamino)methyl)-4-hydroxy-9-methyl-2-oxo-2,5,6,9-tetrahydro-1H-pyrido[2′,3′:4,5]oxepino[3,2-f]indole-3-carboxylic acid hydrochloride]: the MIC in assay [1] was less than 1 mg/L; in assay [2] it was 12.5 to 150 mg/L; in assay [3] (setting [4]), less than 1 mg/L.
With `O=C(O)c1c(O)c2c([nH]c1=O)-c1ccc(N[C@@H]3CC[C@H]4CNC[C@H]43)cc1OCC2` [Cpd 166, 4-hydroxy-9-(((cis)-octahydrocyclopenta[c]pyrrol-4-yl)-(cis)-amino)-2-oxo-1,2,5,6-tetrahydrobenzo[2,3]oxepino[4,5-b]pyridine-3-carboxylic acid hydrochloride], the MIC in assay [1], in assay [2] and in assay [3] (setting [4]) was 12.5 to 150 mg/L each time.
Take `CN[C@H]1[C@@H]2CN(c3ccc4c(c3)CCCc3c-4[nH]c(=O)c(C(=O)O)c3O)C[C@@H]21` [Cpd 11, 4-hydroxy-9-((cis,cis)-6-(methylamino)-3-azabicyclo[3.1.0]hexan-3-yl)-2-oxo-2,5,6,7-tetrahydro-1H-benzo[6,7]cyclohepta[1,2-b]pyridine-3-carboxylic acid hydrochloride]: the MIC is 1 to 3.5 mg/L in assay [1], 3.5 to 12.5 mg/L in assay [2] and less than 1 mg/L in assay [3] (setting [4]).
As to `Cl.O=C(O)c1c(O)c2c([nH]c1=O)-c1ccc(N3CCNCC3)cc1CCC2` [Cpd 119, 4-hydroxy-2-oxo-9-(piperazin-1-yl)-2,5,6,7-tetrahydro-1H-benzo[6,7]cyclohepta[1,2-b]pyridine-3-carboxylic acid hydrochloride], the MIC in assay [1] lay within 12.5 to 150 mg/L; in assay [2], 12.5 to 150 mg/L; in assay [3] (setting [4]) it was 3.5 to 12.5 mg/L.
As to `CN(CCO)Cc1cc2cc3c(cc2n1C)CCCc1c-3[nH]c(=O)c(C(=O)O)c1O.Cl` [Cpd 149, 4-hydroxy-10-(((2-hydroxyethyl)(methyl)amino)methyl)-9-methyl-2-oxo-1,2,5,6,7,9-hexahydropyrido[3′,2′:6,7]cyclohepta[1,2-f]indole-3-carboxylic acid hydrochloride], the MIC is 3.5 to 12.5 mg/L in assay [1], 3.5 to 12.5 mg/L in assay [2] and less than 1 mg/L in assay [3] (setting [4]).
Take `CCNCCc1cc2cc3c(cc2n1C)CCCc1c-3[nH]c(=O)c(C(=O)O)c1O.O=C(O)C(F)(F)F` [Cpd 165, 10-(2-(ethylamino)ethyl)-4-hydroxy-9-methyl-2-oxo-1,2,5,6,7,9-hexahydropyrido[3′,2′:6,7]cyclohepta[1,2-f]indole-3-carboxylic acid trifluoroacetate]: the MIC in assay [1] is 1 to 3.5 mg/L; in assay [2], 12.5 to 150 mg/L; in assay [3] it was less than 1 mg/L.
In the case of `Cn1c2c(cc(C(=O)O)c1=O)CCCc1cc3c(ccn3C)cc1-2` [Cpd 133, 1,9-dimethyl-2-oxo-1,2,5,6,7,9-hexahydropyrido[3′,2′:6,7]cyclohepta[1,2-f]indole-3-carboxylic acid], the MIC was 3.5 to 12.5 mg/L (≈ 10.9 to 38.8 µM) in assay [1], 12.5 to 150 mg/L (≈ 38.8 to 465 µM) in assay [2] and less than 1 mg/L in assay [3] (setting [4]).
The matching figures for `Cl.Cn1c(CNCc2cccnc2)cc2cc3c(cc21)CCCc1c-3[nH]c(=O)c(C(=O)O)c1O` [Cpd 52, 4-hydroxy-9-methyl-2-oxo-10-(((pyridin-3-ylmethyl)amino)methyl)-1,2,5,6,7,9-hexahydropyrido[3′,2′:6,7]cyclohepta[1,2-f]indole-3-carboxylic acid hydrochloride]: 3.5 to 12.5 mg/L, 3.5 to 12.5 mg/L and less than 1 mg/L.
